Laboratory results: patent EP4567167A1, “ELECTROSPUN FIBERS COMPRISING SURFACE-REACTED CALCIUM CARBONATE AND ACTIVE INGREDIENTS” (Omya International AG, priority 2023, dated 2025)

Experiment: Production of drug-loaded fibers without SRCC by electrospinning
Conditions: PCL in chloroform/acetone
Experimental: The spinning dispersion was prepared by mixing the solid carriers into a 15%, w/w solution of PCL, that was dissolved in a mix of chloroform/acetone, (40/60,w/w). The polymer solution was prepared separately. Therefore, the polymer was added slowly to avoid formation of clumps and subsequently stirred for at least 24 h at room temperature.
The emitter was an assembly of 4 blunt needles (21G) that were surrounded by nitrogen gas saturated with acetone (Figure 3 b)) to avoid bearding at the tip of the needles due to fast evaporation of solvents from the polymer solution. The lateral movement was adapted to the width of the drum collector (0.3 m) at a speed of approx. 0.1 m/s. Working distance (distance between emitter and collector) was 0.2 m and liquid feed rate was kept at 3ml/h for each needle using a syringe pump. A total of 30 ml was spun. The potential was adjusted to approx. -20kV ± 2kV in order to maintain a stable spray. The dimensions of the collector (rotating drum) were 0.3 m in width and a diameter of 0.1 m. The drum was rotated at 500 rpm. The drum was covered with aluminum and finally coated with magnesium-stearate to avoid the product from adhering/sticking to the aluminum foil. The process was constantly supervised. Needles were cleaned and the electric potential was adjusted when necessary to maintain a stable spinning process.

Nc1nc2c(ncn2COCCO)c(=O)[nH]1 [Acyclovir]
solubility in the spinning solution: too low
